{"source": "patent US6951887B2", "about": "(The Research Foundation of State University of New York, priority 1998, dated 2005)", "key": {"LnCap (Prostate)": {"system": "LnCap (Prostate)", "assay": "killing of cultured cells, LnCap", "assay_type": "cell-based", "design": "key: “+” indicates that the cells were killed by treatment; “−” indicates that they were not; “+/−” indicates a slow marginal response seen only in a few special cases with fibroblasts experimentally transformed by introduction of the ras oncogene", "conditions": "compound at two to fourfold above its threshold killing concentration", "description": "(§1) Table 1: Summarized are the responses of cells in culture to killing by example members of the family of blocked lipoate derivatives that are the object of this invention as well as one control compound (dihydroxyoctanoic acid). At right is indicated the specific cell line followed by the tissue of origin of the cell line. Across the top are listed the specific compounds tested. Each blocked lipoate derivative was used at two to fourfold above its threshold killing concentration. [These concentrations range form 0.15 mM (60 ug/ml or 60 mg/kg) to 2.5 mM (800 ug/ml or 800 mg/kg) (see EXAMPLE 11).] […] “+/−” indicates a slow marginal response seen only in a few special cases with fibroblasts experimentally transformed by introduction of the ras oncogene (EXAMPLE 10).\n(§2) First, each cell type to be tested was plated at low densities in the wells of a standard 6×24 well tissue culture plate. (Multiple wells are seeded for each cell type.)\n(§3) Second, the cells were allowed to grow to moderate densities. Transformed cells are in contact and non-transformed cells are contact-inhibited under these conditions.\n(§4) Third, the lipoate derivatives to be tested were added to individual wells. In these experiments each compound was added at two to fourfold above the threshold killing concentration for cancer cells (EXAMPLE 11).\n(§5) Fourth, cells were monitored over the next several days."}, "[1]": {"assay": "nonspecific toxicity by intraperitoneal injection", "conditions": "C57/BL, mouse, in vivo, ip", "experimental": "(§6) (All studies described in this section were carried out by intraperitoneal (IP) injection into C57/BL mice.)"}, "C57/BL mice": {"system": "C57/BL mice", "assay": "nonspecific toxicity by intraperitoneal injection", "conditions": "mouse, in vivo, ip", "experimental": "as §6"}, "SW480 (Colon)": {"system": "SW480 (Colon)", "assay": "killing of cultured cells, SW480", "assay_type": "cell-based", "design": "key: “+” indicates that the cells were killed by treatment; “−” indicates that they were not; “+/−” indicates a slow marginal response seen only in a few special cases with fibroblasts experimentally transformed by introduction of the ras oncogene", "conditions": "compound at two to fourfold above its threshold killing concentration", "description": "as §1, §2, §3, §4, §5"}, "RD (Embryo)": {"system": "RD (Embryo)", "assay": "killing of cultured cells, RD", "assay_type": "cell-based", "design": "key to cells killed by treatment: “+” indicates that the cells were killed by treatment; “−” indicates that they were not; “+/−” indicates a slow marginal response seen only in a few special cases with fibroblasts experimentally transformed by introduction of the ras oncogene", "description": "as §1, §2, §3, §4, §5"}, "Hep G2": {"system": "Hep G2", "assay": "killing of cultured cells, Hep G2", "assay_type": "cell-based", "design": "key to cells killed by treatment: “+” indicates that the cells were killed by treatment; “−” indicates that they were not; “+/−” indicates a slow marginal response seen only in a few special cases with fibroblasts experimentally transformed by introduction of the ras oncogene", "description": "as §1, §2, §3, §4, §5"}, "A549 (Lung)": {"system": "A549 (Lung)", "assay": "killing of cultured cells, A549", "assay_type": "cell-based", "design": "key to cells killed by treatment: “+” indicates that the cells were killed by treatment; “−” indicates that they were not; “+/−” indicates a slow marginal response seen only in a few special cases with fibroblasts experimentally transformed by introduction of the ras oncogene", "description": "as §1, §2, §3, §4, §5"}, "B-16 melanoma": {"system": "B-16 melanoma", "assay": "B-16 system, cells injected IP", "assay_type": "in vivo, mouse", "conditions": "100 mg/kg IP twice a day, 16 days, B-16 cells IP in C57/BL mice", "description": "The B-16 melanoma strain was introduced either subcutaneously or intraperitoneally into individuals of the C57/BL syngeneic mouse strain (7). When left untreated such mice develop massive tumors in the immediate area of injection as well as secondary metastases throughout the animal—including in the liver and the lungs. These malignant growths result in the early death of the animals. Moreover, the resulting malignant growths are made up of darkly pigmented malignant melanocytes—making their assessment convenient and highly reliable. We will henceforth refer to this as the “B-16 system”.\nFirst, a group of mice were injected IP with B-16 cells. The injected group was divided at random into two equal subsets. One subset (experimental) was injected IP twice a day with 100 mg/kg of the bis-benzoyl lipoate member of the compound class in 200 ul of 10% ethanol. [See EXAMPLES 3, 8 and 11 for descriptions of bis-benzoyl lipoate.] The second subset (control) was injected with 200 ul of 10% ethanol alone.\nAfter 16 days, the animals were examined—including by dissection where appropriate. The control animals had numerous, massive IP tumor masses."}, "NIH 3T3 parental": {"system": "NIH 3T3 parental", "assay": "killing of cultured cells, parental NIH 3T3", "assay_type": "cell-based", "conditions": "120 ug/ml, ca. 24 hours of treatment", "description": "as §1, §2\nSecond, the cells were allowed to grow to moderate densities. Transformed cells are in contact and non-transformed cells are contact-inhibited under these conditions. […]\nas §5\nNIH-3T3 cells are relatively normal, noncancerous cells. However, if an activated allele of the ras oncogene is introduced into these cells they become highly malignant (cancerous) as assessed by several assays (REFERENCE)."}, "MDCK (Kidney)": {"system": "MDCK (Kidney)", "assay": "killing of cultured cells, MDCK", "assay_type": "cell-based", "conditions": "120 ug/ml, ca. 48 hours", "description": "as §1, §2, §3, §4, §5"}, "B16 (Skin)": {"system": "B16 (Skin)", "assay": "killing of cultured cells, B16", "assay_type": "cell-based", "design": "key: “+” indicates that the cells were killed by treatment; “−” indicates that they were not; “+/−” indicates a slow marginal response seen only in a few special cases with fibroblasts experimentally transformed by introduction of the ras oncogene", "conditions": "compound at two to fourfold above its threshold killing concentration", "description": "as §1, §2, §3, §4, §5"}, "HeLa cells": {"system": "HeLa cells", "assay": "killing of HeLa cells with or without dichloroacetate (DCA)", "assay_type": "cell-based", "conditions": "compound ca. twofold above threshold killing dose plus 5 mM DCA", "experimental": "HeLa cells were plated at moderate densities and allowed to attach and grow for ca. 24 hours in a series of wells in a multi-well tissue culture plate. To individual wells of the first subset (control) were added bis-acetyl lipoate, mono-acetyl lipoate or bis-benzoyl lipoate—each at ca. twofold above the threshold killing dose (EXAMPLE 11). To an equivalent (experimental) subset of wells were added these same compounds at the same dose together with the simultaneous addition of DCA to 5 mM final concentration."}}}
{"compound": "O=C(O)CCCCC(CCSC(=O)c1ccccc1)SC(=O)c1ccccc1", "note": "(stereo not drawn) [bis-benzoyl lipoate, 6,8-bisbenzoylmercaptooctanoic acid]", "values": [{"measurement": "cells killed by treatment", "setting": "LnCap (Prostate)", "result": "+"}, {"measurement": "LD50", "setting": "[1]", "result": "~1000", "unit": "mg/kg"}, {"measurement": "maximum well-tolerated dose", "setting": "C57/BL mice", "result": "ca. 500 mg/kg"}, {"measurement": "cells killed by treatment", "setting": "SW480 (Colon)", "result": "+"}, {"measurement": "cell killing, embryonic cancer cells (FIG. 1)", "setting": "RD (Embryo); 120 ug/ml, ca. 48 hours", "result": "efficiently killed"}, {"measurement": "cells killed by treatment", "setting": "RD (Embryo); RD, Embryo, compound at two to fourfold above its threshold killing concentration", "result": "+"}, {"measurement": "cell killing, liver cancer cells (FIG. 1)", "setting": "Hep G2; 120 ug/ml, ca. 48 hours", "result": "efficiently killed"}, {"measurement": "cells killed by treatment", "setting": "Hep G2; Hep G2, compound at two to fourfold above its threshold killing concentration", "result": "+"}, {"measurement": "cell killing, lung cancer cells (FIG. 1)", "setting": "A549 (Lung); 120 ug/ml, ca. 48 hours", "result": "efficiently killed"}, {"measurement": "cells killed by treatment", "setting": "A549 (Lung); A549, Lung, compound at two to fourfold above its threshold killing concentration", "result": "+"}, {"measurement": "tumor mass relative to the control sample", "setting": "B-16 melanoma", "result": "30-50%"}, {"measurement": "effect on noncancerous parental NIH3T3 cells (FIG. 2)", "setting": "NIH 3T3 parental", "result": "unaffected"}, {"measurement": "effect on normal (non-cancerous) kidney epithelial cell line (FIG. 1)", "setting": "MDCK (Kidney)", "result": "not detectably affected"}, {"measurement": "cells killed by treatment", "setting": "B16 (Skin)", "result": "+"}, {"measurement": "speed of cell killing with DCA relative to compound alone", "setting": "HeLa cells", "result": "approximately twvice as rapidly"}]}
